Measurements published in patent US20250169501A1, “Metal(loid)-Based Compositions and Uses Thereof Against Bacterial Biofilms” (CCREST Laboratories Inc., priority 2022, published 2025).
Like-named read-outs stand apart in the source and are kept apart here.

Legend:
P. aeruginosa = assay type: cell-based, Pseudomonas aeruginosa; conditions: SWF; for recovery of bacteria in the same fresh media after treatment: read after 2, 4 and 24 hours; for dilution in which bacteria recovered when agent used alone: vs combination
From the text: For the MBC and recovery potency of bacteria. […] The last well that had no bacterial growth was defined as the MBC.

P. aeruginosa PAO1 = test: In vitro resistance acquisition, serial passage; assay type: cell-based, Pseudomonas aeruginosa; conditions: SWF, sublethal (1/8 MIC) concentration, 7 days
Procedure: Serial passage of growth as a screen for resistant P. aeruginosa PAO1 was carried out for 7 days in SWF supplemented with sublethal (1/8 dilution from the MIC) concentrations of Ag, Te, and Ag—Te mixture. […] Strains of P. aeruginosa PAO1 were grown in sublethal (1/8th MIC) concentrations of Ag, Te or a mixture of the two antimicrobials, for 7 days.
The impact of the MBAs on antibiotic resistance was also tested. Serial passage of growth as a screen for resistant P. aeruginosa PAO1 was performed for 7 days in SWF supplemented with sublethal (1/8 dilution from the MIC) concentrations of Ag, Te, and Ag—Te mixture.

P. aeruginosa biofilm [1] = assay type: cell-based, Pseudomonas aeruginosa
P. aeruginosa biofilm [2] = assay type: cell-based, Pseudomonas aeruginosa; remark: listed apart in the source
39 clinical isolates = test: Antibiotic resistance of the clinical isolates; assay type: cell-based; conditions: out of 39 clinical isolates

Row | Compound | recovery of bacteria in the same fresh media after treatment (P. aeruginosa) | dilution in which bacteria recovered when agent used alone (P. aeruginosa) | occurrence of resistance during serial passage (P. aeruginosa PAO1) | Eradication of P. aeruginosa biofilm (MBEC) (P. aeruginosa biofilm [1]; LB, in 24 h) [mM] | Eradication of P. aeruginosa biofilm (MBEC) (P. aeruginosa biofilm [1]; MHB, in 24 h) [mM] | Eradication of P. aeruginosa biofilm (MBEC) (P. aeruginosa biofilm [1]; SWF, in 24 h) [mM] | Inhibition of P. aeruginosa biofilm (MBIC) (P. aeruginosa biofilm [2]; LB, in 48 h) [mM] | Inhibition of P. aeruginosa biofilm (MBIC) (P. aeruginosa biofilm [2]; MHB, in 48 h) [mM] | Inhibition of P. aeruginosa biofilm (MBIC) (P. aeruginosa biofilm [2]; SWF, in 48 h) [mM] | Eradication of P. aeruginosa biofilm (MBEC) (P. aeruginosa biofilm [1]) [mM] | Inhibition of P. aeruginosa biofilm (MBIC) (P. aeruginosa biofilm [2]) [mM] | clinical isolates resistant to the antibiotic (39 clinical isolates)
1 | O=[N+]([O-])[O-].[Ag+] [Ag, silver nitrate] | couldn't inhibit the recovery of bacteria | three-fold higher dilution | after two days | 0.065 | 0.03 | 0.5 | 0.125 | 0.03 | 0.25 |  |  | 
2 | [Au+3].[Cl-].[Cl-].[Cl-].[Cl-] [Au, tetrachloroaurate] |  |  |  | 0.25 | 0.25 | 1 | 0.5 | 0.25 | 0.25 |  |  | 
3 | O=S(=O)([O-])[O-].[Cu+2] [Cu, copper sulfate] |  |  |  |  |  |  |  |  |  | 6.25 | 8 | 
4 | O=[N+]([O-])[O-].O=[N+]([O-])[O-].O=[N+]([O-])[O-].[Ga+3] [Ga, gallium nitrate] |  |  |  | 3 | 3 | 12.5 | 12.5 | 12.5 | 25 |  |  | 
5 | O=[Se](O)O [Se, sodium selenite] |  |  |  | >50 | >50 | >50 | >50 | >50 | >50 |  |  | 
6 | O=[Te]([O-])[O-].[K+].[K+] [Te, potassium tellurite] | couldn't inhibit the recovery of bacteria | two-fold higher dilution | after five days | 0.5 | 0.5 | 0.5 | 0.5 | 0.5 | 0.5 |  |  | 
7 | gentamicin |  |  |  |  |  |  |  |  |  |  |  | 15 (38%) isolates (%)
